Measured values taken from patent US7214663B2, “Tripeptide prodrug compounds” (Medarex, Inc., priority 2001, dated 2007).

Tests used:
[1] = test system: HT-29 (colon carcinoma) cells; settings: HT29, 48 hours, 3H-thymidine incorporation
Protocol: (§1) Adherent cells, LNCaP (prostate carcinoma), HT-29 (colon carcinoma) and PC-3 (prostate carcinoma), were cultured in DMEM media containing 10% heat inactivated fetal calf serum (FCS). On the day of the study the cells were detached from the plate with a trypsin solution. The collected cells were washed and resuspended at a concentration of 0.25×10^6 cells/ml in DMEM containing 10% FCS. 100 μl of cell suspension were added to 96 well plates and the plates were incubated for 3 hours to allow the cells to adhere. […] The plates were then incubated for 24 hours, pulsed with 10 μl of a 100 μCi/ml ^3H-thymidine and incubated for an additional 24 hours (total incubation time 48 hours). The plates were harvested using a 96 well Harvester (Packard Instruments) and counted on a Packard Top Count Counter. Four parameter logistic curves were fitted to the ^3H-thymidine incorporation as a function of drug molarity using Prism software to determine IC50 values.
(§2) Prostate carcinoma cells, LNCaP and PC-3 cells or colon carcinoma cells HT-29, were incubated with increasing concentration of the indicated compounds for 48 hours and cellular proliferation was measured using the ^3H-thymidine assay.

[2] = test system: LNCaP (prostate carcinoma) cells; settings: 48 hours, 3H-thymidine incorporation
Protocol: as §1, §2

[3] = test system: PC-3 (prostate carcinoma) cells; settings: PC-3, 48 hours, 3H-thymidine incorporation
Protocol: as §1, §2

[4] = Single dose Maximum Tolerated Dose (SD-MTD) study, 49 days, ICR mice (Examples 5 and 6); settings: mouse, in vivo, iv, SD-MTD (mg/kg), intravenous bolus, ICR mice, Day 49
Protocol: (§3) In a second single dose Maximum Tolerated Dose (SD-MTD) study, groups of five normal ICR mice were administered intravenous bolus doses of Suc-Leu-Ala-Leu-Dox. The mice were observed daily for 49 days and body weights measured twice weekly.
(§4) In a second single dose Maximum Tolerated Dose (SD-MTD) study, groups of five normal ICR mice were administered intravenous bolus doses of Suc-Leu-Ala-Gly-Dox. The mice were observed daily for 49 days and body weights measured twice weekly.

normal ICR mice = test: as above
Protocol: as §3, §4

[5] = SD-MTD studies, 60 days, normal mice (Example 14); settings: mouse, in vivo; for MTD: Table 12, re-analyzed data and new data
Protocol: In the single dose Maximum Tolerated Dose (SD-MTD) studies, groups of normal mice were administered intravenous bolus doses of the prodrug. The mice were observed daily for 60 days and body weights measured twice weekly. The SD-MTD was estimated to be equal to the highest dose that produced no death in mice after 60 days.

[6] = Repeat-dose tolerability / repeat dose MTD in tumor bearing mice; type: in vivo, mouse; settings: mouse, in vivo, Table 12, re-analyzed
Text: (§5) In one study, one animal in each dose group (n=8) was terminated as a possible drug-related toxicity death late in the study, at Days 58 and 57 in the low and high dose-groups respectively. The safety of the compound was evidenced by little body weight loss in either the high or low dose groups (less than 5% of the initial weight) during the 60-day observation period, in surviving animals (FIG. 14). In the other study, both the high and low dose were well tolerated. Only one animal in the high dose group (n=10) had over 15% of body weight loss at the end of the study (Day 61).
(§6) In repeat-dose studies in tumor bearing mice, groups of ten mice were dosed with various amounts of prodrug for a total of five doses at either five day or 1 week intervals. […] Thus, the prodrugs permit a much greater amount of therapeutic agent to be delivered to the body as a whole and thus to the vicinity of the target cell.

[7] = test system: human colon carcinoma (HT-29); test: HT-29 xenograft efficacy study
Text: Healthy young male nude mice were subcutaneously injected with 5 million of HT-29 cells.

BALL-1 cells (CD10neg) = type: cell-based, human; settings: Ball-1 (CD10neg), 24 hours, 3H-thymidine
Protocol: (§7) In addition to LNCaP, a number of B-cell lines, such as Ramos and Namalwa cells express CD10 (CD10^pos cells).
(§8) Suspension cells, BALL-1, Ramos and Namalwa cells were cultured in RPMI media containing 10% heat inactivated fetal calf serum (FCS). On the day of the study, the cells were collected, washed and resuspended at a concentration of 0.5×10^6 cells/ml in RPMI containing 10% FCS. 100 μl of cell suspension was added to 96 well plates. […] Finally 10 μl of a 100 μCi/ml ^3H-thymidine was added per well and the plates were incubated for 24 hours. The plates were harvested using a 96 well Harvester (Packard Instruments) and counted on a Packard Top Count counter. Four parameter logistic curves were fitted to the ^3H-thymidine incorporation as a function of drug molarity using Prism software to determine IC50 values.

Ramos cells (CD10pos) = type: cell-based, human; settings: 24 hours, 3H-thymidine
Protocol: as §7, §8

Namalwa cells (CD10pos) = test: cells; type: cell-based, human; settings: 24 hours, 3H-thymidine
Protocol: as §7, §8

in vivo [8] = settings: female, ICR, mouse, iv
Protocol: Plasma was obtained from three individual animals in each group at 5 minutes, 1, 2, 4, or 6 hr.

tumor-bearing nude mice = test: Repeat-dose tolerability / repeat dose MTD in tumor bearing mice; type: in vivo, mouse; settings: Table 11, five doses at five day or 1 week intervals
Text: as §5, §6

[9] = Metabolism and clearance of Suc-Leu-Ala-Leu-Dox in mice (plasma, urine); type: in vivo, mouse
Protocol: Plasma samples of 100 μl were transferred to microcentrifuge tubes (1.5 mL) and an internal standard of daunorubicin (20 μL at 0.5 mg/ml) was added together with acetonitrile (400 μl). The tubes were capped and briefly vortexed followed by centrifugation at 14,000 rpm. 420 μl from each tube was removed and dried in vacuo. Each sample was reconstituted in 65 μl 20 mM aqueous ammonium formate (AF) pH 4.5 buffer containing acetonitrile (20%) prior to analysis by reverse phase liquid chromatography in combination with tandem mass spectrometry (LC MS/MS).
Urine was collected at 2 and 24 hours post administration from pairs of mice in metabolic cages. Urine samples were diluted with AF buffer containing acetonitrile (20%) to give a target analyte concentration within the practical range of the LC MS/MS assay. 30 μl of each diluted sample was placed in a micro centrifuge tube (1.5 ml) and an internal standard of daunorubicin (20 μL at 0.5 mg/ml) was added together with 50 μl of AF buffer containing acetonitrile (20%). Each sample was then analyzed by LC MS/MS.
An Agilent HP1100 HPLC with DAD detector and Chemstation software was coupled to a PE Sciex API 365 mass spectrometer with an electrospray ion source. HPLC was performed on a TSK-Gel Super ODS, […], 4.6×50 mm (TosoHaas) reversed phase column equipped with a […] C18 guard disc (Higgins Analytical) and stainless steel frit (Upchurch Scientific). Chromatography was performed at room temperature. The flow rate was 0.5 ml/min. Injection volume was 50 μl. Gradient elution was performed using a mobile phase of AF buffer with increasing amounts of acetonitrile. The API 365 was operated at 365° C. in a multiple reaction monitoring mode, set to monitor specific analyte parent-daughter ion pairs. Integration of chromatograms was performed by MacQuan software (PE Sciex) and quantitation of each analyte obtained by comparison to previously obtained calibration curves. Daunorubicin was used as an internal standard in all cases.

[10] = Metabolism and clearance of Suc-Met-Ala-Leu-Dox in mice (plasma, urine); type: in vivo, mouse
Protocol: Plasma samples were obtained at 1 or 4 hours, and urine was collected at 2 and 24 hours post administration. Levels of the prodrug and metabolites were measured by LC-MS with UV detection of doxorubicin.

in vivo [11] = settings: female, mouse, iv
[12] = test system: human colon carcinoma (LS174T); test: LS174T xenograft efficacy study; settings: doxorubicin-insensitive model
Protocol: Healthy young female nude mice were subcutaneously implanted with chunks of LS174T. […] Tumor size and body weights were measured twice weekly for up to 60 days.

[13] = after single intravenous 117 mg/kg Suc-Leu-Ala-Leu-Dox
[14] = after single intravenous 120 mg/kg Suc-Met-Ala-Leu-Dox
[15] = 4.0 mg/kg every 7 days for 5 doses

## COc1cccc2c1C(=O)c1c(O)c3c(c(O)c1C2=O)C[C@@](O)(C(=O)CO)C[C@@H]3O[C@H]1C[C@H](NC(=O)CNC(=O)[C@H](C)NC(=O)[C@H](CC(C)C)NC(=O)CCC(=O)O)[C@H](O)[C@H](C)O1 [Suc-Leu-Ala-Gly-Dox]
[1]
  IC50: 32 µM
[2]
  IC50: 15 µM
[3]
  IC50: 39 µM
[4]
  MTD: ≥ 220 mg/kg
Normal ICR mice; any dose level
  acute toxicity, within 24 hours: no acute toxicity
Normal ICR mice; any dose level up to 220 mg/kg
  mortalities, morbidity or significant body weight loss over the 49 day study: no mortalities, morbidity or significant body weight loss
Normal ICR mice; molar basis versus doxorubicin alone
  SD-MTD Molar Ratio (Dox =): 8.8
[5]; SD MTD (mg/kg), value in parentheses: doxorubicin equivalent dose
  MTD: > 141 mg/kg
[5]; read-out: SD MTD
  MTD: > 220 mg/kg
[6]; Repeat Dose MTD (mg/kg), value in parentheses: doxorubicin equivalent dose, Q 5 D × 5 or Q 7 D × 5
  MTD: > 70 mg/kg
[6]; Q 5 D × 5 or Q 7 D × 5 as given per compound, read-out: Repeat Dose MTD
  MTD: > 110 mg/kg
[7]; 40 mg/kg every 7 days for 5 doses
  Toxicity (Weight Loss > 20%): 0/7
[7]; 67 mg/kg every 7 days for 5 doses
  Toxicity (Weight Loss > 20%): 0/7
BALL-1 cells (CD10neg)
  IC50: 23.3 µM
Ramos cells (CD10pos)
  IC50: 22.7 µM
Namalwa cells (CD10pos)
  IC50: 17.3 µM
In vivo [8]; 100 umol/kg
  AUC: 310 µM·h

## COc1cccc2c1C(=O)c1c(O)c3c(c(O)c1C2=O)C[C@@](O)(C(=O)CO)C[C@@H]3O[C@H]1C[C@H](N)[C@H](O)[C@H](C)O1 [Doxorubicin, reference compound]
[5]; Table 11, doses as first stated, intravenous bolus, 60 days
  MTD at 60 days: 4 mg/kg
tumor-bearing nude mice
  Optimal Efficacy Repeat Dose (mg/kg), value in parentheses (doxorubicin equivalent dose): 4 (4) mg/kg
tumor-bearing nude mice; tumor bearing mice, 60 days
  Optimal Efficacy Repeat Dose (mg/kg): 4 (4) mg/kg
[9]; [13]
  Urine 2 hr, percent of administered dose: 0.05%
  Urine 24 hr, percent of administered dose: 0.15%
[9]; female, mouse, in vivo, iv, 117 mg/kg, 1 h
  Plasma 1 hr, percent of administered dose: 0.002%
[9]; female, mouse, in vivo, iv, 117 mg/kg, 4 h
  Plasma 4 hr, percent of administered dose: 0.000%
[10]; [14]
  Urine 2 hr, percent of administered dose: 0.30%
  Urine 24 hr, percent of administered dose: 0.61%
[10]; female, mouse, in vivo, iv, 120 mg/kg, 1 h
  Plasma 1 hr, percent of administered dose: 0.002%
[10]; female, mouse, in vivo, iv, 120 mg/kg, 4 h
  Plasma 4 hr, percent of administered dose: 0.002%
[7]; [15]
  Calculated Mean Day of Survival: 30.0 ± 3.7 days
  Extension of Mean Day of Survival over controls: 16.7%
  Number of Long Term Survivors: 0/10
[7]; 4.0 mg/kg every 7 days for 5 doses, listed as doxorubicin
  Calculated Mean Day of Survival: 30 days
Namalwa cells (CD10pos); Homo sapiens
  IC50: 0.01 µM
In vivo [11]
  MTD at 28 days: 4 to 8 mg/kg
In vivo [8]
  AUC: 3.3 µM·h
[12]
  anti-tumor activity in LS174T xenograft: virtually inactive
